Results taken from publication PMC7486443, “Generation of Phenothiazine with Potent Anti-TLK1 Activity for Prostate Cancer Therapy” (iScience, 2020).

Columns and labels:
Assay in all cases: biochemical
Set-up in all cases: DiscoverX KINOMEscan scanMAX competition binding panel, single concentration, percent of control; remaining binding: dose or concentration left out as unconfirmed
Details in all cases: KINOMEscan binding, percent of control; read-out: Table S4_SCANMAX REPORT - related to Fig. 1 / Percent Control
[1] = target: T1, ABL1(F317L)-phosphorylated (Homo sapiens, UniProt P00519, F317L)
T1 construct: phosphorylated

[2] = target: T2, ABL1(T315I)-phosphorylated (Homo sapiens, UniProt P00519, T315I)
T2 construct: phosphorylated

CAMKK2 = CAMKK2 (Homo sapiens, UniProt Q96RR4)
Chain of CAMKK2 (Q96RR4 whole entry): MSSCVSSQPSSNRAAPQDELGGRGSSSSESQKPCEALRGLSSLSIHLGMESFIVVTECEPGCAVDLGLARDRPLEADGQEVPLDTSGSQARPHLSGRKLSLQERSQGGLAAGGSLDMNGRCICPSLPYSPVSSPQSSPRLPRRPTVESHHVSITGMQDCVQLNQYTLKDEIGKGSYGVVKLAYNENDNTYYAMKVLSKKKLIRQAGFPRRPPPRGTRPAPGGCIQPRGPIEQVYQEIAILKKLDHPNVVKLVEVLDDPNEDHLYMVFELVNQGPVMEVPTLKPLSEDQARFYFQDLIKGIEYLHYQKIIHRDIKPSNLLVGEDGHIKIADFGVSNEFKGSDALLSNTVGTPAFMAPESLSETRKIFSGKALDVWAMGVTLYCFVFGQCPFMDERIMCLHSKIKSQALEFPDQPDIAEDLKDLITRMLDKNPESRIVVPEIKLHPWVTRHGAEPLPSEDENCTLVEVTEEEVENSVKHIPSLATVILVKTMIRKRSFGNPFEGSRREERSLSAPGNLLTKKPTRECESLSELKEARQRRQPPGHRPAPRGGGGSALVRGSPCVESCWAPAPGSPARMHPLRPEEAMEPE

CDK4-cyclinD1 = target: T3, CDK4-cyclinD1 (Homo sapiens, UniProt P11802)
T3 construct: cyclinD1

CSNK1D = CSNK1D (Homo sapiens, UniProt P48730)
Chain of CSNK1D (P48730 whole entry): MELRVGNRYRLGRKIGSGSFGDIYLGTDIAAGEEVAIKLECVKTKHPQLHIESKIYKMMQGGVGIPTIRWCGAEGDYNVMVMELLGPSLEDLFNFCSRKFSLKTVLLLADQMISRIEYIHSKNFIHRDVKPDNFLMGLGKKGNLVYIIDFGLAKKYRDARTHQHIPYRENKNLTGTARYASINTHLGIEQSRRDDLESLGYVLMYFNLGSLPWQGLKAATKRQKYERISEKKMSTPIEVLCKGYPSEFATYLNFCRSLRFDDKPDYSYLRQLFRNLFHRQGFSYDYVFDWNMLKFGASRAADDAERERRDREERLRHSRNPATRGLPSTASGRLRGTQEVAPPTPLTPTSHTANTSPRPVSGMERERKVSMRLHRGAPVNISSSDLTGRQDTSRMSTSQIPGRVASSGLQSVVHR

DAPK3 = DAPK3 (Homo sapiens, UniProt O43293)
DMPK = DMPK (Homo sapiens, UniProt Q09013)
Chain of DMPK (Q09013 whole entry): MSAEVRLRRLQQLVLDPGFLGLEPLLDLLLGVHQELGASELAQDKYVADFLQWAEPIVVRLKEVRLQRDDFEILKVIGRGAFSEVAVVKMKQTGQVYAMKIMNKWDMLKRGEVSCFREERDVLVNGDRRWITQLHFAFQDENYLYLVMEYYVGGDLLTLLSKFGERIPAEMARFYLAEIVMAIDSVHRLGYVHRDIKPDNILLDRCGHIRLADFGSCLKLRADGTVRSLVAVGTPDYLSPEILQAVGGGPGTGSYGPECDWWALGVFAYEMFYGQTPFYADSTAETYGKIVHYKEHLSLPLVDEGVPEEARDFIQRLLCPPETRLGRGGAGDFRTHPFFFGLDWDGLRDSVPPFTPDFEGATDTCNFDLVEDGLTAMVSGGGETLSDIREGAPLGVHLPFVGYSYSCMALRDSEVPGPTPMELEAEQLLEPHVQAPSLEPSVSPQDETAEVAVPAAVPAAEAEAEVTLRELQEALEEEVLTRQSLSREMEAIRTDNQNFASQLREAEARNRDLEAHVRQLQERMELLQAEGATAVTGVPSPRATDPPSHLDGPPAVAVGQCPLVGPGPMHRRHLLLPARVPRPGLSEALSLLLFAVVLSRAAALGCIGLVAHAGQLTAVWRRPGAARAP

DMPK2 = target: T4, DMPK2 (Homo sapiens, UniProt Q6DT37)
T4 construct: gene CDC42BPG
T4 sequence (Q6DT37 whole entry): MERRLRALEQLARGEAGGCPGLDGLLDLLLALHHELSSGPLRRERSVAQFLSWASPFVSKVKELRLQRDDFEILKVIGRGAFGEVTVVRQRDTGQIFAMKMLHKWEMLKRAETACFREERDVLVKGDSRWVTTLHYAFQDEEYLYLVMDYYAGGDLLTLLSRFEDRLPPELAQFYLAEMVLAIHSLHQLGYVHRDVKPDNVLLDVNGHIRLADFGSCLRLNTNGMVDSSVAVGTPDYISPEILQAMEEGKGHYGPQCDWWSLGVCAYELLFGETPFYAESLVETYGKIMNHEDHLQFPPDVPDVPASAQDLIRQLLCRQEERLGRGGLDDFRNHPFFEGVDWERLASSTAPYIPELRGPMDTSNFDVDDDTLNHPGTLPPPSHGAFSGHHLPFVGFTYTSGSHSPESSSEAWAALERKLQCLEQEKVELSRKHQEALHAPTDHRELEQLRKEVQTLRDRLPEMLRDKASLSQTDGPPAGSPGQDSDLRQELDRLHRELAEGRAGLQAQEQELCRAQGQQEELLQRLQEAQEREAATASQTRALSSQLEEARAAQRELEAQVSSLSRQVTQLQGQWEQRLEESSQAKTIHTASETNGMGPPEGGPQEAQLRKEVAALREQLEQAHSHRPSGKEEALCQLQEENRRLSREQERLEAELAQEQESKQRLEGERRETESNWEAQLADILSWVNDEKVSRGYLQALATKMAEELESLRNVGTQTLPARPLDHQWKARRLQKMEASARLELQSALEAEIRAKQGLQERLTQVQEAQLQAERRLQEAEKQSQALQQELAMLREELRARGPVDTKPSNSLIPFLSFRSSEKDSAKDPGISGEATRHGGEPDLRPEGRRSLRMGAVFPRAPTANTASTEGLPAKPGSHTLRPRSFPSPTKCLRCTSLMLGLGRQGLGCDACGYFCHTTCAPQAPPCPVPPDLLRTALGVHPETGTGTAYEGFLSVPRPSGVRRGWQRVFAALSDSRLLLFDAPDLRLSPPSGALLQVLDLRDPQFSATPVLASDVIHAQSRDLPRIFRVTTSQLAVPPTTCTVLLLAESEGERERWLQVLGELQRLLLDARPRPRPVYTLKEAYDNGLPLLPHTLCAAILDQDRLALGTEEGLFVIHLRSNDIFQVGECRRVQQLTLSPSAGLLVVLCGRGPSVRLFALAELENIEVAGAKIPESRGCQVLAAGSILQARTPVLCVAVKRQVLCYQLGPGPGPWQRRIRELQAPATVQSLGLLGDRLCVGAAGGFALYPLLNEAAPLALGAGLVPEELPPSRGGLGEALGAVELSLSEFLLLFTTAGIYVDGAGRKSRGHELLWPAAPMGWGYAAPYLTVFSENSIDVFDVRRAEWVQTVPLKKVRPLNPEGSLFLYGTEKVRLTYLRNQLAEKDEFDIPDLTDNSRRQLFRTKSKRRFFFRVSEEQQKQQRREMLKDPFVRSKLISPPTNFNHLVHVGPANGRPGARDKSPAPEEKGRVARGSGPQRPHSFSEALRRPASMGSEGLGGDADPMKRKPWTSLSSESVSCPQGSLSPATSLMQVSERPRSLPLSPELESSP

DYRK1A = DYRK1A (Homo sapiens, UniProt Q13627)
EPHA7 = EPHA7 (Homo sapiens, UniProt Q15375)
Chain of EPHA7 (Q15375 whole entry): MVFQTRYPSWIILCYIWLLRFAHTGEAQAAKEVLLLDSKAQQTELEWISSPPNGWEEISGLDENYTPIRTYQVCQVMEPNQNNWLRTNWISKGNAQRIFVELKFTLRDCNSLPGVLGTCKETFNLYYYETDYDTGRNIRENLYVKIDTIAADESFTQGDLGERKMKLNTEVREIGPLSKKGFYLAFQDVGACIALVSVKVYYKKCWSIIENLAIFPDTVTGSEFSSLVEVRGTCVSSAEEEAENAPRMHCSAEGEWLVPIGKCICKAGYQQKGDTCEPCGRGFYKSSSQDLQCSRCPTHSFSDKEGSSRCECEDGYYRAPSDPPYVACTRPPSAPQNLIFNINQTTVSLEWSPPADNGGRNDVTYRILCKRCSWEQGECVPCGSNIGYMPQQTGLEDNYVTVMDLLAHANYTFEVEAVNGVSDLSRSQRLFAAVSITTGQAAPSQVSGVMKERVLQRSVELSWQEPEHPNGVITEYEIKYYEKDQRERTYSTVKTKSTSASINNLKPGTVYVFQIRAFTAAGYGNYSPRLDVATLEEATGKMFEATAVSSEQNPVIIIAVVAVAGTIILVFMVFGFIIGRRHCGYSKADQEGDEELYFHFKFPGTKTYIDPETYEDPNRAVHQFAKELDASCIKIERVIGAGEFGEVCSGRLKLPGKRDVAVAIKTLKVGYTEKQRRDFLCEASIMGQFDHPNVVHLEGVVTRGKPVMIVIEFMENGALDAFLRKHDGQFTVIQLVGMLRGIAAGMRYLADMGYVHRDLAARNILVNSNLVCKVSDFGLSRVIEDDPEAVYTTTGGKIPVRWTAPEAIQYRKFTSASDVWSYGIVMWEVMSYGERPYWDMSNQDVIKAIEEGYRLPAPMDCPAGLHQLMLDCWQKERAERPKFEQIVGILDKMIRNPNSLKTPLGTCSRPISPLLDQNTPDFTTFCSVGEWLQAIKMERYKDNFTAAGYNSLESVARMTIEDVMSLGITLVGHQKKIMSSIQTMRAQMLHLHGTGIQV

MARK2 = MARK2 (Homo sapiens, UniProt Q7KZI7)
Chain of MARK2 (Q7KZI7 whole entry): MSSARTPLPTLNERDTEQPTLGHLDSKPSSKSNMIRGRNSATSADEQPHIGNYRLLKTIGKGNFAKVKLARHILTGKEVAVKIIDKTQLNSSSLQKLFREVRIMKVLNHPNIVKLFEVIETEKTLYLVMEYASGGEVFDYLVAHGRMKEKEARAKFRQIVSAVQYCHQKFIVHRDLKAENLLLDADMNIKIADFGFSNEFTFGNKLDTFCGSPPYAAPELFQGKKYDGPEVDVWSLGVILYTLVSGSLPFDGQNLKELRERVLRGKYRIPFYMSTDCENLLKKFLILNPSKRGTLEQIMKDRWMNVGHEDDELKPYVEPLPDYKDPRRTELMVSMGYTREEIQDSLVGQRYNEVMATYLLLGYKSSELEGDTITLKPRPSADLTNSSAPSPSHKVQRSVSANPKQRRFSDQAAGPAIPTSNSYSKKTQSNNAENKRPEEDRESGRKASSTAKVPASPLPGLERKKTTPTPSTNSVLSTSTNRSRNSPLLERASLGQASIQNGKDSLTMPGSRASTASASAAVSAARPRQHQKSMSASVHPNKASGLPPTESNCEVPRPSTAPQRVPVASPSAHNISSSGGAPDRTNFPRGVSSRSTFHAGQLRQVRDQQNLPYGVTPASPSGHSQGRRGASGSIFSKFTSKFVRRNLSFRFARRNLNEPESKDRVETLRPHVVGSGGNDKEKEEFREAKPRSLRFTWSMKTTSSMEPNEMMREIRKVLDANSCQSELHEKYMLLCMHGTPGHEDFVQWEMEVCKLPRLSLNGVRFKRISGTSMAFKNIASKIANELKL

MST3 = target: T5, MST3 (Homo sapiens, UniProt Q9Y6E0)
T5 construct: gene STK24

NEK11 = NEK11 (Homo sapiens, UniProt Q8NG66)
PFTAIRE2 = target: T6, PFTAIRE2 (Homo sapiens, UniProt Q96Q40)
T6 construct: gene CDK15

PIKFYVE = PIKFYVE (Homo sapiens, UniProt Q9Y2I7)
RET = RET (Homo sapiens, UniProt P07949)
TEC = TEC (Homo sapiens, UniProt P42680)
TGFBR1 = TGFBR1 (Homo sapiens, UniProt P36897)

## c1ccc2c(c1)Sc1ccccc1N2CCN1CCOCC1 [J54]
[1]
  remaining binding: 99%
[2]
  remaining binding: 93%
CAMKK2
  remaining binding: 100%
CDK4-cyclinD1
  remaining binding: 36%
CSNK1D
  remaining binding: 95%
DAPK3
  remaining binding: 96%
DMPK
  remaining binding: 85%
DMPK2
  remaining binding: 89%
DYRK1A
  remaining binding: 80%
EPHA7
  remaining binding: 100%
MARK2
  remaining binding: 99%
MST3
  remaining binding: 100%
NEK11
  remaining binding: 100%
PFTAIRE2
  remaining binding: 100%
PIKFYVE
  remaining binding: 94%
RET
  remaining binding: 98%
TEC
  remaining binding: 100%
TGFBR1
  remaining binding: 100%
